According to patent publication US8207144B2, “Sodium salt of disaccharide compound, production method and use of same” (Eisai R & D Management Co., Ltd., priority 2006, dated 2012):

Test: Storage stability test (formation of impurities A, B and C by HPLC)
Format: physicochemical
Details: HPLC area percent
Protocol: Consequently, formation rates (converted to monthly rates) were calculated for each of the three types of decomposition products (impurities A, B and C) using the area percent.

[1] = storage at 25° C. in screw-cap glass bottle, day 0
[2] = storage at 25° C., day 1.0, listed as 3.67 Na Salt
[3] = storage at 25° C., day 1.9, listed as 3.67 Na Salt
[4] = storage at 25° C., day 4.5, listed as 3.67 Na Salt
[5] = storage at 25° C., day 1.0, listed as 3.93 Na Salt
[6] = storage at 25° C., day 1.9, listed as 3.93 Na Salt
[7] = storage at 25° C., day 4.5, listed as 3.93 Na Salt

## CCCCCC/C=C\CCCCCCCCCC(=O)N[C@H]1[C@H](OC[C@H]2O[C@H](OP(=O)(O)O)[C@H](NC(=O)CC(=O)CCCCCCCCCCC)[C@@H](OCCCCCCCCCC)[C@@H]2O)O[C@H](COC)[C@@H](OP(=O)(O)O)[C@@H]1OCC[C@@H](CCCCCCC)OC [Example 2]
[1]
  Impurity A: 0.00%
Storage at 25° C., day 0
  Impurity B: 0.00%
  Impurity C: 0.00%
Storage at 25° C., day 18
  Impurity A: 0.00%
  Impurity B: 0.00%
  Impurity C: 0.17%

## CCCCCC/C=C\CCCCCCCCCC(=O)N[C@H]1[C@H](OC[C@H]2O[C@H](OP(=O)([O-])[O-])[C@H](NC(=O)CC(=O)CCCCCCCCCCC)[C@@H](OCCCCCCCCCC)[C@@H]2O)O[C@H](COC)[C@@H](OP(=O)([O-])[O-])[C@@H]1OCC[C@@H](CCCCCCC)OC.[Na+].[Na+].[Na+].[Na+] [Example 3]
[1]
  Impurity A: 0.00%
Storage at 25° C., day 0
  Impurity C: 0.00%
Storage at 25° C., day 0, listed as 3.67 Na Salt
  Impurity B: 0.08%
Storage at 25° C., day 1.0
  Impurity C: 0.00%
[2]
  Impurity A: 0.00%
  Impurity B: 0.12%
Storage at 25° C., day 1.9
  Impurity C: 0.00%
[3]
  Impurity A: 0.01%
  Impurity B: 0.09%
Storage at 25° C., day 4.5
  Impurity C: 0.01%
[4]
  Impurity A: 0.01%
  Impurity B: 0.13%
Storage at 25° C., day 8.8
  Impurity C: 0.01%
Storage at 25° C., day 29.5, listed as 3.67 Na Salt
  Impurity C: 0.07%

## CCCCCC/C=C\CCCCCCCCCC(=O)NC1C(OCC2OC(OP(=O)([O-])[O-])C(NC(=O)CC(=O)CCCCCCCCCCC)C(OCCCCCCCCCC)C2O)OC(COC)C(OP(=O)([O-])[O-])C1OCCC(CCCCCCC)OC.[Na+].[Na+].[Na+].[Na+] (stereo not drawn) [Comparative Example 1, reference compound]
[1]
  Impurity A: 0.00%
Storage at 25° C., day 0
  Impurity B: 0.18%
  Impurity C: 0.00%
Storage at 25° C., day 1.0
  Impurity A: 0.06%
  Impurity B: 0.36%
  Impurity C: 0.00%
Storage at 25° C., day 1.9
  Impurity A: 0.08%
  Impurity B: 0.48%
  Impurity C: 0.00%
Storage at 25° C., day 4.5
  Impurity A: 0.12%
  Impurity B: 0.67%
  Impurity C: 0.00%
Storage at 25° C., day 8.8
  Impurity C: 0.00%
Storage at 25° C., day 29.5
  Impurity C: 0.03%

## CCCCCC/C=C\CCCCCCCCCC(=O)N[C@H]1[C@H](OC[C@H]2O[C@H](OP(=O)([O-])[O-])[C@H](NC(=O)CC(=O)CCCCCCCCCCC)[C@@H](OCCCCCCCCCC)[C@@H]2O)O[C@H](COC)[C@@H](OP(=O)([O-])[O-])[C@@H]1OCC[C@@H](CCCCCCC)OC.[Na+].[Na+].[Na+].[Na+] [Example 4]
[1]
  Impurity A: 0.00%
Storage at 25° C., day 0
  Impurity C: 0.00%
Storage at 25° C., day 0, listed as 3.93 Na Salt
  Impurity B: 0.14%
Storage at 25° C., day 1.0
  Impurity C: 0.00%
[5]
  Impurity A: 0.03%
  Impurity B: 0.26%
Storage at 25° C., day 1.9
  Impurity C: 0.00%
[6]
  Impurity A: 0.04%
  Impurity B: 0.29%
Storage at 25° C., day 4.5
  Impurity C: 0.01%
[7]
  Impurity A: 0.06%
  Impurity B: 0.38%
Storage at 25° C., day 8.8
  Impurity C: 0.01%
Storage at 25° C., day 29.5, listed as 3.93 Na Salt
  Impurity C: 0.06%
